The values below come from patent US12453720B2, “Application of norharmane in improving antibacterial activity of antibiotics” (ZHEJIANG UNIVERSITY OF TECHNOLOGY, priority 2020, dated 2025).

This assay has as its system drug-resistant Pseudomonas aeruginosa GDMCC No: 61027 (strain C218). The assay is described as follows: Checkerboard microdilution of norharmane combined with an antibiotic (OD600 growth, MIC at 80% inhibition, FICI and ΔE evaluation). In kind it is cell-based. How it is done: Preparation of bacterial solution: Pseudomonas aeruginosa GDMCC No: 61027 stored at −80° C., was thawed at room temperature, streaked on LB agar medium and cultured at 37° C. for 24 h, and then a single well-developed colony was inoculated again and cultured for 24 h at 37° C. to ensure that the strain was in the growth phase. A single colony was selected, inoculated into LB medium, and cultured at 37° C. and 200 rpm. for 16 h. The resulting solution was diluted 10000 times with fresh LB medium to obtain Pseudomonas aeruginosa GDMCC No:61027 bacterial solution whose concentration calculated by of the amount of bacterial viable count was […].
According to the checkerboard microdilution method, the norharmane mother liquor was diluted 4 times with methanol, and the concentration ranges of norharmane and an antibiotic (polymyxin B, imipenem-cilastatin sodium or levofloxacin) in combination were screened.
Methanol was used as a diluent, the preparation concentrations of norharmane were 160, 80, 40, 20, 10, 5 and 2.5 μg/mL, the preparation concentrations of polymyxin B were 31.25, 15.6, 7.8, 3.9, 1.95, 0.98 and 0.49 μg/mL; the preparation concentrations of imipenem-cilastatin sodium were 8000, 4000, 2000, 1000, 500, 250 and 125 μg/mL; the preparation concentrations of levofloxacin were 250, 125, 62.5, 31.25, 15.6, 7.8 and 3.9 μg/mL; and the preparation concentrations of ofloxacin were 2000, 1000, 500, 250, 125, 62.5, and 31.25 μg/mL.
According to FIG. 7, each antibiotic is added into a 96-well plate, and 50 μL of the antibiotic solutions were drawn and added into wells in columns 2˜8 of the %-well plate in the order of concentration from low to high, while the same amount of methanol instead of antibiotic was added into column 1. 50 μL of the norharmane solutions were drawn and added into wells in rows G˜A of the 96-well plate in the order of concentration from low to high, while no norharmane was added into wells in row H. After the 96-well plate was left to stand to evaporate methanol completely, 200 μL of the Pseudomonas aeruginosa GDMCC No: 61027 bacterial solution (2.6×10^9 CFU) were added into the wells in columns 1˜8. Therefore, the final concentrations of norharmane were 40, 20, 10, 5, 2.5, 1.25, 0.63 and 0 μg/mL; the final concentrations of norharmane were polymyxin B is 7.8, 3.9, 1.95, 0.98, 0.49, 0.24, 0.12 and 0 μg/mL; the final concentrations of imipenem-cilastatin sodium were 2000, 1000, 500, 250, 125, 62.5, 31.25 and 0 μg/mL; the final concentrations of levofloxacin were 62.5, 31.25, 15.6, 7.8, 3.9, 1.95, 0.98 and 0 μg/mL; and the final concentrations of ofloxacin were 500, 250, 125, 62.5, 31.25, 15.6, 7.8 and 0 μg/mL. 200 μL of fresh LB medium were added to column 9. Wherein, well H1 is a growth control well, containing only bacterial solution and no drugs, and column 9 is a blank control containing only LB liquid medium. The prepared 96-well plate was placed in a constant temperature incubator at 37° C. for 24 h, and then OD600 was measured with a microplate reader and the results were recorded. All experiments were repeated three times.
OD value of each well at 600 nm was measured with a microplate reader. And the percentage of the bacterial growth inhibition of each well was determined as
Loewe additivity (LA) theory assumes that the drugs applied in combination have no interaction, i.e., null reference model. FICI method is the non-parametric method of LA theory, which can be expressed as: ΣFIC=FICA+FICB=CA/MICA+CB/MICB
wherein MICA and MICB denote minimum inhibitory concentrations of two drugs A and B when used alone, respectively, and CA and CB denote concentration of drugs A and B in combination respectively while their combined effect is equal to the sum of their individual separate effects. ΣFIC value of each well with percentage of the bacterial growth inhibition >80% were calculated, and in the ΣFIC values obtained, if ΣFICmax>4, FICI=ΣFICmax; if ΣFICmax<4, FICI=ΣFICmin. […]
A general note: Dilution methods test growth across graded concentrations, often in twofold steps.

Where [1] appears, read: end point 80% growth inhibition.

Take `C[C@H]1COc2c(N3CCN(C)CC3)c(F)cc3c(=O)c(C(=O)O)cn1c23` [Levofloxacin, levofloxacin, reference compound]: the “MIC MICB: minimum inhibitory concentration of the antibiotic when used alone” value under setting [1] worked out at 62.5 µg/mL. Also, the Growth percentage turned out to be 91% (levofloxacin 0.98 μg/ml alone (norharmane 0)); 89% (levofloxacin 1.95 μg/ml alone (norharmane 0)); 85% (levofloxacin 3.9 μg/ml alone (norharmane 0)); 72% (levofloxacin 7.8 μg/ml alone (norharmane 0)); 42% (levofloxacin 15.6 μg/ml alone (norharmane 0)); 26% (levofloxacin 31.25 μg/ml alone (norharmane 0)). Besides, the Growth percentage (levofloxacin 62.5 μg/ml alone (norharmane 0)) was 5%.

As to `c1ccc2c(c1)[nH]c1cnccc12` [Norharmane, norharmane], the Growth percentage (norharmane 0.63 μg/ml alone, imipenem-cilastatin sodium 0 (Table 2)) was 94%; the Growth percentage (norharmane 0.63 μg/ml alone, levofloxacin 0 (Table 3)) was found to be 98%; the Growth percentage (norharmane 0.63 μg/ml alone, ofloxacin 0 (Table 4)) is listed as 99%; the Growth percentage (norharmane 0.63 μg/ml alone, polymyxin B 0 (Table 1)) was determined as 99%; the Growth percentage (norharmane 1.25 μg/ml alone, imipenem-cilastatin sodium 0 (Table 2)) came to 92%; the Growth percentage (norharmane 1.25 μg/ml alone, levofloxacin 0 (Table 3)) is given as 94%. Besides, the Growth percentage is, setting by setting: (norharmane 1.25 μg/ml alone, ofloxacin 0 (Table 4)) 98%; (norharmane 1.25 μg/ml alone, polymyxin B 0 (Table 1)) 96%; (norharmane 2.5 μg/ml alone, imipenem-cilastatin sodium 0 (Table 2)) 87%; (norharmane 2.5 μg/ml alone, levofloxacin 0 (Table 3)) 94%; (norharmane 2.5 μg/ml alone, ofloxacin 0 (Table 4)) 97%; (norharmane 2.5 μg/ml alone, polymyxin B 0 (Table 1)) 96%. Also, the Growth percentage was determined as 87% (norharmane 5 μg/ml alone, imipenem-cilastatin sodium 0 (Table 2)); 92% (norharmane 5 μg/ml alone, levofloxacin 0 (Table 3)); 95% (norharmane 5 μg/ml alone, ofloxacin 0 (Table 4)); 95% (norharmane 5 μg/ml alone, polymyxin B 0 (Table 1)); 86% (norharmane 10 μg/ml alone, imipenem-cilastatin sodium 0 (Table 2)); 98% (norharmane 10 μg/ml alone, levofloxacin 0 (Table 3)). For the same compound, the Growth percentage is, setting by setting: (norharmane 10 μg/ml alone, ofloxacin 0 (Table 4)) 94%; (norharmane 10 μg/ml alone, polymyxin B 0 (Table 1)) 95%; (norharmane 20 μg/ml alone, imipenem-cilastatin sodium 0 (Table 2)) 85%; (norharmane 20 μg/ml alone, levofloxacin 0 (Table 3)) 95%; (norharmane 20 μg/ml alone, ofloxacin 0 (Table 4)) 88%; (norharmane 20 μg/ml alone, polymyxin B 0 (Table 1)) 95%. Further, the Growth percentage was found to be 82% (norharmane 40 μg/ml alone, imipenem-cilastatin sodium 0 (Table 2)); 93% (norharmane 40 μg/ml alone, levofloxacin 0 (Table 3)); 81% (norharmane 40 μg/ml alone, ofloxacin 0 (Table 4)); 84% (norharmane 40 μg/ml alone, polymyxin B 0 (Table 1)). For the same compound, the “MIC MICA: minimum inhibitory concentration of a drug used alone” value (norharmane used alone, end point 80% growth inhibition) worked out at 40 µg/mL.

On to `CC1COc2c(N3CCN(C)CC3)c(F)cc3c(=O)c(C(=O)O)cn1c23` (centres unmarked) [Ofloxacin, ofloxacin, reference compound], for which the “MIC MICB: minimum inhibitory concentration of the antibiotic when used alone” value under setting [1] was found to be 500 µg/mL. For the same compound, the Growth percentage is, setting by setting: (ofloxacin 7.8 μg/ml alone (norharmane 0)) 83%; (ofloxacin 15.6 μg/ml alone (norharmane 0)) 79%; (ofloxacin 31.25 μg/ml alone (norharmane 0)) 73%; (ofloxacin 62.5 μg/ml alone (norharmane 0)) 67%; (ofloxacin 125 μg/ml alone (norharmane 0)) 54%; (ofloxacin 250 μg/ml alone (norharmane 0)) 36%. The Growth percentage (ofloxacin 500 μg/ml alone (norharmane 0)) is on record as 6%.

For the compound polymyxin B [reference compound], the “MIC MICB: minimum inhibitory concentration of the antibiotic when used alone” value under setting [1] stood at 7.8 µg/mL. In addition, the Growth percentage (polymyxin B 0.12 μg/ml alone (norharmane 0)) came out at 100%; the Growth percentage (polymyxin B 0.24 μg/ml alone (norharmane 0)) was determined as 98%; the Growth percentage (polymyxin B 0.49 μg/ml alone (norharmane 0)) amounted to 98%; the Growth percentage (polymyxin B 0.98 μg/ml alone (norharmane 0)) came out at 90%; the Growth percentage (polymyxin B 1.95 μg/ml alone (norharmane 0)) is reported as 52%; the Growth percentage (polymyxin B 3.9 μg/ml alone (norharmane 0)) stood at 29%. For the same compound, the Growth percentage (polymyxin B 7.8 μg/ml alone (norharmane 0)) is 5%.
